# Results as given in patent US8546443B2, “Benzylic oxindole pyrimidines” (Boehringer Ingelheim International GmbH, priority 2010, dated 2013).
# Molecular target: T1, cytoplasmic kinase domain of human IGF-1R (IGF-1R-GST) (Homo sapiens, UniProt P08069)
# T1 construct: cytoplasmic kinase domain of human IGF-1R (amino acids 964-1370); GST (glutathione-S-transferase); made in house; host or cells: High Five insect cells (Invitrogen)
# Assay: Insulin-like growth factor-1 receptor (IGF-1R) kinase assay (DELFIA)
# Type: biochemical
# Conditions: IGF-1R-GST kinase activity, read-out: IGF1R IC50
# Method: Insulin-Like Growth Factor-1 Receptor (IGF-1R)-Kinase Assay
# The kinase activity is measured by DELFIA® assay (dissociation-enhanced lanthanide fluorescence immunoassay, Perkin Elmer). […] Enzyme activity is measured in the presence of substances and a control substance. Poly-glutamate-tyrosine peptide (pEY, Sigma Aldrich) and biotinylated pEY (bio-pEY) are used as reaction substrates.
# After 40 min at RT the reactions are stopped with 50 μL of stop solution (250 mM EDTA, 20 mM HEPES pH 7.4). 90 μL from each reaction are transferred onto streptavidin-coated 96-well plates. After 120 min incubation at RT the plates are washed three times with 200 μL phosphate-buffered saline (PBS) per well. The plates are incubated for 60 min with 100 μL of europium-coupled antibody against phospho-tyrosine (diluted 1/2000 in Perkin Elmer DELFIA assay buffer) per well. The plates are washed three times with 200 μL per well of DELFIA washing buffer. 100 μL DELFIA Enhancement Solution (Perkin Elmer) is added to each well, and the plates are incubated for 10 min. The fluorescence signal is measured with a Wallac Victor TRF Reader. IC50 values for the inhibition of the IGF-1R-kinase activity are calculated using the programmes Fifty (Version 2) and GraphPad (Version 3.0).
# T1 sequence (P08069 964-1367 limits assumed): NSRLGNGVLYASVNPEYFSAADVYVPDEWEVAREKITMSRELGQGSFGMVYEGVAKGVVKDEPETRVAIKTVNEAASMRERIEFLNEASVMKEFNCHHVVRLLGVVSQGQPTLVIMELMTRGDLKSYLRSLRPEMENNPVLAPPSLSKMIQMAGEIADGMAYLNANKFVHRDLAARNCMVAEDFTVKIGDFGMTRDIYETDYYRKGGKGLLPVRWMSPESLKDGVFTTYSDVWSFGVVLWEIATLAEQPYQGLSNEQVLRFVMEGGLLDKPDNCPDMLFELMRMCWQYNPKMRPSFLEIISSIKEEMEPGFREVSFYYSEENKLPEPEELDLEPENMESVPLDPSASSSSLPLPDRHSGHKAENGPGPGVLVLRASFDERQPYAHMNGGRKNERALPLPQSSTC
row,SMILES,IC50
1,COc1cc(N2CCN(CC3CC3)CC2)ccc1Nc1ncc(C(F)(F)F)c(NCc2cccc3c2CC(=O)N3)n1 [Example I-165],4 nM
2,CCOC(=O)N1CCC(N2CCN(c3ccc(Nc4ncc(C(F)(F)F)c(NCc5cccc6c5CC(=O)N6)n4)c(OC)c3)CC2)CC1 [Example I-166],11 nM
3,COCCNC1CCN(c2ccc(Nc3ncc(C(F)(F)F)c(NCc4cccc5c4C(C)(C)C(=O)N5)n3)c(OC)c2)CC1 [Example I-167],0.2 nM
4,COCCCN(C)C1CCN(c2ccc(Nc3ncc(C(F)(F)F)c(NCc4cccc5c4C(C)(C)C(=O)N5)n3)c(OC)c2)CC1 [Example I-168],0.2 nM
5,COc1cc(N2CCC(N(C)CCO)CC2)ccc1Nc1ncc(C(F)(F)F)c(NCc2cccc3c2C(C)(C)C(=O)N3)n1 [Example I-169],0.26 nM
6,COc1cc(N2CCC(N3CCC(OC)CC3)CC2)ccc1Nc1ncc(C(F)(F)F)c(NCc2cccc3c2C(C)(C)C(=O)N3)n1 [Example I-170],0.33 nM
7,COc1cc(N2CCC(N3CCOCC3)CC2)ccc1Nc1ncc(C(F)(F)F)c(NCc2cccc3c2C(C)(C)C(=O)N3)n1 [Example I-171],0.38 nM
8,COc1cc(N2CCC(N3CC[C@H](O)C3)CC2)ccc1Nc1ncc(C(F)(F)F)c(NCc2cccc3c2C(C)(C)C(=O)N3)n1 [Example I-172],0.4 nM
9,COc1cc(N2CCC(NCC(C)(C)OC)CC2)ccc1Nc1ncc(C(F)(F)F)c(NCc2cccc3c2C(C)(C)C(=O)N3)n1 [Example I-173],0.46 nM
10,COc1cc(N2CCC(N3CC[C@@H](O)C3)CC2)ccc1Nc1ncc(C(F)(F)F)c(NCc2cccc3c2C(C)(C)C(=O)N3)n1 [Example I-174],0.81 nM
11,COCCN(C)C1CCN(c2ccc(Nc3ncc(C(F)(F)F)c(NCc4cccc5c4C(C)(C)C(=O)N5)n3)c(OC)c2)CC1 [Example I-175],0.87 nM
12,COc1cc(N2CCC(N3CCC3)CC2)ccc1Nc1ncc(C(F)(F)F)c(NCc2cccc3c2C(C)(C)C(=O)N3)n1 [Example I-176],0.98 nM
13,COc1cc(N2CCC(N3CCC(O)CC3)CC2)ccc1Nc1ncc(C(F)(F)F)c(NCc2cccc3c2C(C)(C)C(=O)N3)n1 [Example I-177],1 nM
14,COc1cc(N2CCC(N(C)CCN(C)C)CC2)ccc1Nc1ncc(C(F)(F)F)c(NCc2cccc3c2CC(=O)N3)n1 [Example I-178],2 nM
15,COCCNC1CCN(c2ccc(Nc3ncc(C(F)(F)F)c(NCc4cccc5c4CC(=O)N5)n3)c(OC)c2)CC1 [Example I-179],2 nM
16,COc1cc(N2CCC(N3CCCC3)CC2)ccc1Nc1ncc(C(F)(F)F)c(NCc2cccc3c2C(C)(C)C(=O)N3)n1 [Example I-180],2 nM
17,COc1cc(N2CCC(N(C)C)CC2)ccc1Nc1ncc(C(F)(F)F)c(NCc2cccc3c2C(C)(C)C(=O)N3)n1 [Example I-181],2 nM
18,COc1cc(N2CCC(N3CCC(N(C)C)CC3)CC2)ccc1Nc1ncc(C(F)(F)F)c(NCc2cccc3c2CC(=O)N3)n1 [Example I-182],3 nM
19,COc1cc(N2CCC(NCCCN(C)C)CC2)ccc1Nc1ncc(C(F)(F)F)c(NCc2cccc3c2CC(=O)N3)n1 [Example I-183],3 nM
20,COc1cc(N2CCC(N(C)C)CC2)ccc1Nc1ncc(C(F)(F)F)c(NCc2cccc3c2CC(=O)N3)n1 [Example I-184],4 nM

row,SMILES,IC50
1,COc1cc(N2CCC(N(C)CCCN(C)C)CC2)ccc1Nc1ncc(C(F)(F)F)c(NCc2cccc3c2CC(=O)N3)n1 [Example I-185],4 nM
2,COc1cc(N2CCC(N(C)CCO)CC2)ccc1Nc1ncc(C(F)(F)F)c(NCc2cccc3c2CC(=O)N3)n1 [Example I-186],4 nM
3,CNC1CCN(c2ccc(Nc3ncc(C(F)(F)F)c(NCc4cccc5c4CC(=O)N5)n3)c(OC)c2)CC1 [Example I-187],4 nM
4,COc1cc(N2CCC(N3CCC(O)CC3)CC2)ccc1Nc1ncc(C(F)(F)F)c(NCc2cccc3c2CC(=O)N3)n1 [Example I-188],5 nM
5,COc1cc(N2CCC(N3CCCC3)CC2)ccc1Nc1ncc(C(F)(F)F)c(NCc2cccc3c2CC(=O)N3)n1 [Example I-189],5 nM
6,COc1cc(N2CCC(N3CCN(C4CC4)CC3)CC2)ccc1Nc1ncc(C(F)(F)F)c(NCc2cccc3c2CC(=O)N3)n1 [Example I-190],6 nM
7,COc1cc(N2CCC(NCCO)CC2)ccc1Nc1ncc(C(F)(F)F)c(NCc2cccc3c2CC(=O)N3)n1 [Example I-191],6 nM
8,COc1cc(N2CCC(N3CCC(OC)CC3)CC2)ccc1Nc1ncc(C(F)(F)F)c(NCc2cccc3c2CC(=O)N3)n1 [Example I-192],6 nM
9,COc1cc(N2CCC(N3CCN(C4CCN(C)CC4)CC3)CC2)ccc1Nc1ncc(C(F)(F)F)c(NCc2cccc3c2CC(=O)N3)n1 [Example I-193],7 nM
10,COc1cc(N2CCC(NCCN(C)C)CC2)ccc1Nc1ncc(C(F)(F)F)c(NCc2cccc3c2CC(=O)N3)n1 [Example I-194],7 nM
11,COc1cc(N2CCC(N3CCC(C#N)CC3)CC2)ccc1Nc1ncc(C(F)(F)F)c(NCc2cccc3c2CC(=O)N3)n1 [Example I-195],7 nM
12,COc1cc(N2CCC(N3CCOCC3)CC2)ccc1Nc1ncc(C(F)(F)F)c(NCc2cccc3c2CC(=O)N3)n1 [Example I-196],8 nM
13,COCCN(C)C1CCN(c2ccc(Nc3ncc(C(F)(F)F)c(NCc4cccc5c4CC(=O)N5)n3)c(OC)c2)CC1 [Example I-197],9 nM
14,COc1cc(N2CCC(N3CCN(C(C)C)CC3)CC2)ccc1Nc1ncc(C(F)(F)F)c(NCc2cccc3c2CC(=O)N3)n1 [Example I-198],11 nM
15,COc1cc(N2CCC(N3CCC(F)(F)CC3)CC2)ccc1Nc1ncc(C(F)(F)F)c(NCc2cccc3c2CC(=O)N3)n1 [Example I-199],11 nM
16,COc1cc(N2CCC(N3CCN(C4CCOCC4)CC3)CC2)ccc1Nc1ncc(C(F)(F)F)c(NCc2cccc3c2CC(=O)N3)n1 [Example I-200],13 nM
17,COc1cc(N2CCC(N3CCN(C(C)=O)CC3)CC2)ccc1Nc1ncc(C(F)(F)F)c(NCc2cccc3c2CC(=O)N3)n1 [Example I-201],20 nM
18,COc1cc(N2CCC(N3CCN(C)CC3)CC2)ccc1Nc1ncc(C(F)(F)F)c(NCc2cccc3c2CC(=O)N3)n1 [Example I-202],24 nM
19,CC1(C)C(=O)Nc2cccc(CNc3nc(Nc4ccc(C5CCN(CCO)CC5)cc4)ncc3Cl)c21 [Example I-205],2 nM
20,CNC(=O)CN1CCC(c2ccc(Nc3ncc(Cl)c(NCc4cccc5c4C(C)(C)C(=O)N5)n3)cc2)CC1 [Example I-206],5 nM

row,SMILES,IC50
1,CC1(C)C(=O)Nc2cccc(CNc3nc(Nc4ccc(C5CCN(CCS(C)(=O)=O)CC5)cc4)ncc3Cl)c21 [Example I-207],10 nM
2,CNC(=O)CN1CCC(c2ccc(Nc3ncc(Cl)c(NCc4cccc5c4C(C)(C)C(=O)N5)n3)c(C)c2)CC1 [Example I-219],2 nM
3,COc1cc(N2CCN(CCF)CC2)ccc1Nc1ncc(C(F)(F)F)c(NCc2cccc3c2CC(=O)N3)n1 [Example I-222],32 nM
4,COc1cc(N2CCN(CCO)CC2)ccc1Nc1ncc(C(F)(F)F)c(NCc2cccc3c2CC(=O)N3)n1 [Example I-223],18 nM
5,COCCN1CCN(c2ccc(Nc3ncc(C(F)(F)F)c(NCc4cccc5c4CC(=O)N5)n3)c(OC)c2)CC1 [Example I-224],18 nM
6,CCN1CCC(NC(=O)c2ccc(Nc3ncc(C(F)(F)F)c(NCc4cccc5c4C(C)(C)C(=O)N5)n3)c(OC)c2)CC1 [Example I-225],2 nM
7,COc1cc(N2CCC(C(=O)NC3CCN(C)CC3)CC2)ccc1Nc1ncc(C(F)(F)F)c(NCc2cccc3c2C(C)(C)C(=O)N3)n1 [Example I-226],2 nM
8,CNC(=O)C1CCN(c2ccc(Nc3ncc(C(F)(F)F)c(NCc4cccc5c4C(C)(C)C(=O)N5)n3)c(OC)c2)CC1 [Example I-227],5 nM
9,COc1cc(C(=O)NC2CCN(C)CC2)ccc1Nc1ncc(C(F)(F)F)c(NCc2cccc3c2C(C)(C)C(=O)N3)n1 [Example I-228],8 nM
10,CCN1CCC(NC(=O)c2ccc(Nc3ncc(C(F)(F)F)c(NCc4cccc5c4CC(=O)N5)n3)c(OC)c2)CC1 [Example I-229],12 nM
11,COc1cc(N2CCC(C(=O)N(C)C)CC2)ccc1Nc1ncc(C(F)(F)F)c(NCc2cccc3c2C(C)(C)C(=O)N3)n1 [Example I-230],13 nM
12,COc1cc(C(=O)NC2CCN(C)CC2)ccc1Nc1ncc(C(F)(F)F)c(NCc2cccc3c2C(C)(C)C(=O)N3C)n1 [Example I-231],15 nM
13,COc1cc(C(=O)NCCN2CCCC2)ccc1Nc1ncc(C(F)(F)F)c(NCc2cccc3c2CC(=O)N3)n1 [Example I-232],47 nM
14,CCC1(CC)C(=O)Nc2cccc(CNc3nc(Nc4ccc(C(=O)NC5CCN(C)CC5)cc4OC)ncc3C(F)(F)F)c21 [Example I-233],58 nM
15,COc1cc(C(=O)N2CCOCC2)ccc1Nc1ncc(C(F)(F)F)c(NCc2cccc3c2C(C)(C)C(=O)N3)n1 [Example I-234],8 nM
16,COc1cc(N2CCC(O)CC2)ccc1Nc1ncc(C(F)(F)F)c(NCc2cccc3c2CC(=O)N3)n1 [Example I-237],21 nM
17,COc1cc(N2CCNCC2)ccc1Nc1ncc(Cl)c(NCc2cccc3c2C(C)(C)C(=O)N3)n1 [Example I-254],2.2 nM
18,CC(C)(O)CN1CCC(c2ccc(Nc3ncc(C(F)(F)F)c(NCc4cccc5c4C(C)(C)C(=O)N5)n3)c3c2OCO3)CC1 [Example I-315],1.9 nM
